According to patent US20250325529A1, “INHIBITORS OF FATTY ACID BINDING PROTEINS (FABPs), METHODS OF USE AND METHODS OF MAKING” (Celloram, inc., priority 2024, published 2025):

Tests used:
[1] = Single dose IV and PO PK study in C57BL/6 mice; assay type: in vivo; conditions: mouse, plasma; male C57BL/6 mice, single oral dose 10 mg/kg
Procedure: C57BL/6 male mice or Han Wistar rats were used, n=3 for each administration route and compound. Single dose of each compound was administered orally (PO, 10 mg/Kg) or by intravenous administration (IV, 1 mg/Kg). Following intravenous and oral administration, blood samples (ca 0.2 mL) were collected and compound amount was measured by HLPC. For IV group, blood samples were collected at 0.083, 0.25, 0.5, 1, 2, 4, 6, 8, and 24 hours post-dose. For PO group, blood samples were collected at 0.25, 0.5, 1, 2, 4, 6, 8, and 24 hours post-dose.

[2] = biological target: FABP4 (Homo sapiens (Human), UniProt P15090); test: Fluorescence (ANS) competition binding assay, FABP4; conditions: ANS displacement
Procedure: (§1) This example illustrates a two-step fluorescence binding assay study used to determine the binding affinity of the various inhibitor compounds disclosed herein with the various FABPs: FABP3, FABP4, FABP5 and FABP7. Further secondary screening studies were carried out for compounds with high binding affinities toward the FABPs and based on their ability to activate the nuclear receptors PPARα, PPARγ, or PPARδ.
(§2) Binding assays for FABP3, FABP4, FABP5 and FABP7 were carried out by fluorescence titrations. His-tagged FABPs were bacterially expressed in E. coli, purified using Ni Sepharose beads, and the equilibrium dissociation constants (Kd) that characterize their interactions with different inhibitor compounds were measured by fluorescence competition assays. The method entails two steps as described in e.g., Lin, Q. et al., “Ligand selectivity of the peroxisome proliferator-activated receptor alpha,” Biochemistry 38, 185-190, doi:10.1021/bi9816094 [pii](1999). In the first step, Kd for the association of the protein with the fluorescent fatty acid probe ANS was measured. Protein (2 μM) was titrated with ANS from a concentrated solution in DMSO. Ligand binding was monitored by following the increase in the fluorescence of the ligand upon binding to the protein, and Kd for the association of ANS with the each FABP was computed from titration curves as described in e.g., Norris, A. W. & Li, E., “Fluorometric titration of the CRABPs,” Methods Mol Biol 89, 123-139 (1998)). In the second step, Kds for binding of non-fluorescent ligands were measured by monitoring their ability to displace ANS in the binding pocket of the protein. Each FABP was precomplexed with ANS at 1:1 molar ratio and titrated with the different compounds whose binding was reflected by a decrease in probe fluorescence. Kds were extracted from the EC50 of the competition curve and the measured Kd for ANS.

[3] = biological target: FABP5 (Homo sapiens (Human), UniProt Q01469); test: Fluorescence (ANS) competition binding assay, FABP5; conditions: ANS displacement
Procedure: as §1, §2

[4] = biological target: FABP7 (Homo sapiens (Human), UniProt O15540); test: Fluorescence (ANS) competition binding assay, FABP7; conditions: ANS displacement
Procedure: as §1, §2

[5] = biological target: FABP3 (Homo sapiens (Human), UniProt P05413); test: Fluorescence (ANS) competition binding assay, FABP3; conditions: ANS displacement
Procedure: as §1, §2

[6] = biological target: PPARα (Homo sapiens (Human), UniProt Q07869); test: Transcriptional activation assay in COS7 cells, PPARα; assay type: cell-based; conditions: known agonist, 5 μM
Procedure: COS-7 were cultured in 6-well plates and co-transfected with either a luciferase reporter driven by 3 copies of a PPRE and expression vector for either PPARδ, PPARα or PPARγ together with a vector harboring cDNA for β-galactosidase, serving as a transfection control. To test whether FABP4 or FABP5 mediate activation of their cognate receptors PPARγ and PPARδ, respectively, cells were also co-transfected with a plasmid harboring sequence of either FABP4 or FABP5. 18 h post-transfection, cells were placed in a serum-free medium and treated with agonist/compound. 18 h. later, cells were lysed, luciferase activity was assayed (Promega, WI, USA) and corrected for transfection efficiency by the activity of β-galactosidase.
Transcriptional activation assays were carried out utilizing COS7 cells as described above.

Sequence of FABP4 (P15090 whole entry, species assumed): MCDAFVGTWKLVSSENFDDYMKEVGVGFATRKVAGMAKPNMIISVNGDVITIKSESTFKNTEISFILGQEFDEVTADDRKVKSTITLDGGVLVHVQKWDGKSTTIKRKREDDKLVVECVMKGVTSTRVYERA
Sequence of FABP7 (O15540 whole entry, species assumed): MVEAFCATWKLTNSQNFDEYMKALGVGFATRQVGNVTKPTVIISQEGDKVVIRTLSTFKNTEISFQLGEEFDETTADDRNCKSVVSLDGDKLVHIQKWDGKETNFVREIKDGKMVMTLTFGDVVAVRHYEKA
Sequence of FABP5 (Q01469 whole entry, species assumed): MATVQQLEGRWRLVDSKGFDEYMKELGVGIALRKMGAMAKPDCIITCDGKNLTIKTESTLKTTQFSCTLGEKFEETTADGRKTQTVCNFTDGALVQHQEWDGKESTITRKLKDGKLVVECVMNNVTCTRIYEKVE
Sequence of FABP3 (P05413 whole entry, species assumed): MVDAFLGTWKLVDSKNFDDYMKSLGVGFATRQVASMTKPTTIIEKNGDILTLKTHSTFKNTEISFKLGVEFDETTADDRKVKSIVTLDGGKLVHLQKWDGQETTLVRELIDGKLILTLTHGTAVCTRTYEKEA
Sequence of PPARα (Q07869 whole entry, species assumed): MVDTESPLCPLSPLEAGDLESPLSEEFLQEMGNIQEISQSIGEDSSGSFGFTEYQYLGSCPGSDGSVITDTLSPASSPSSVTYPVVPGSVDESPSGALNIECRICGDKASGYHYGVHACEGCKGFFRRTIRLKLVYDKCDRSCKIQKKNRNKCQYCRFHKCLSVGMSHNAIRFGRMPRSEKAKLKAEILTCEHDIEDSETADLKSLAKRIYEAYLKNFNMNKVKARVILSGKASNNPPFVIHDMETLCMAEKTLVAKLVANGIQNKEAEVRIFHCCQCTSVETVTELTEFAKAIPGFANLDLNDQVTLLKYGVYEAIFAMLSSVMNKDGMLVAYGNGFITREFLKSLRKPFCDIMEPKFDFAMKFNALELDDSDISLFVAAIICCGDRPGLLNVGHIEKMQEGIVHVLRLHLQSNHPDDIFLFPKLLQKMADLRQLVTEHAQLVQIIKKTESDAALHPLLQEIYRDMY

Row | bioavailability [1] [%] | Kd [2] [nM] | Kd [3] [nM] | Kd [4] [nM] | Kd [5] [nM] | SMILES | Activation of transcription by PPARα [6]
1 | 47 |  |  |  |  | CC(C)Oc1cc(NC(=O)CSCC(=O)O)c(Cl)cc1Cl [Compound B4, 2-((2-((2,4-dichloro-5-isopropoxyphenyl)amino)-2-oxoethyl)thio)acetic acid, reference compound] | 
2 |  | 96 | 80 | 344 | 98 | CC(C)Oc1nc(NC(=O)CSC(C)(C)C(=O)O)c(Cl)cc1Cl [PD153, 2-((2-((3,5-dichloro-6-isopropoxypyridin-2-yl)amino)-2-oxoethyl)thio)-2-methylpropanoic acid] | 
3 |  | 79 | 59 | 108 | 117 | CC(C)Oc1nc(NC(=O)COCC(=O)O)c(Cl)cc1Cl [PD155, 2-(2-((3,5-dichloro-6-isopropoxypyridin-2-yl)amino)-2-oxoethoxy)acetic acid] | 
4 |  |  |  |  |  | Cc1cccc(Nc2cc(Cl)nc(SCC(=O)O)n2)c1C [Wy-14643, reference compound] | induced activation of their respective receptors
